{"source": "paper PMC6096457", "about": "“Modified translationally controlled tumor protein-derived protein transduction domain enhances nasal delivery of exendin-4 as shown with insulin” (Drug Delivery, 2018)", "experiment": "Visual inspection for cloudiness (turbidity) and precipitation", "type": "physicochemical", "conditions": "mixtures in 10 mM phosphate buffer pH 6.4", "description": "All exendin-4/PTD mixtures were clear."}
{"sequence": "MIIFRLLAYHKK [TCTP-PTD 13M3, substitution S9Y of TCTP-PTD 13M2]", "values": [{"measurement": "cloudiness (turbidity) and precipitation", "result": "did not form any precipitations"}]}
